According to patent US10130590B2, “Methods of treating cancer with atovaquone-related compounds” (DANA-FARBER CANCER INSTITUTE, INC., priority 2013, dated 2018):
Where two headings read alike, the source gives them in different places.

Tests used:
[1] = cited from earlier work
STAT5 = STAT5 cell-based luciferase reporter system
Protocol: To determine if atovaquone inhibits STAT3, it was tested in a cell-based reporter system of STAT3 transcriptional activity (Nelson E A, et al. (2008) Nifuroxazide inhibits survival of multiple myeloma cells by directly inhibiting STAT3. Blood 112(13):5095-5102). These cells lack basal STAT3 activation; upon IL-6 treatment, STAT3 becomes activated and drives transcription of a STAT3-dependent luciferase reporter gene. The STAT3-luc reporter cells were pre-treated with drug for 1 hour, then stimulated with IL-6 (10 ng/ml) for 5 hr. Activity of firefly luciferase was measured and normalized by cell viability (Cell Titer Glo). […] To determine if atovaquone inhibits STAT3 activity specifically over other transcription factors, it was tested in cell-based reporter systems for STAT1 and STAT5, two other STAT family members, and NF-κB, an unrelated transcription factor.

[2] = system: PDGFR-β, EGFR, HER2, and IGF1R-β; experiment: Western blot of other receptors; format: cell-based; conditions: MEF, MDA-MB-468, SKBR3; 25 μM, 6 or 12 hours
Protocol: Western blotting was performed as previously described (Battle T E, Arbiser J, & Frank D A (2005) The natural product honokiol induces caspase dependent apoptosis in B-cell chronic lymphocytic leukemia (B-CLL) cells. Blood 106(2):690-697). Antibodies to phospho-MAPK (9101), total MAPK (9102), phospho-Y705 STAT3 (9131), phospho-S6 (2215), total S6 (2217), phospho-4E-BP1 (9451), total 4E-BP1 (9644), total RSK (9355), phospho-S6K (9234, 85 used at 1:5000), total S6K (2708), phospho-eIF2α (9721, used at 1:1000), total eIF2α (5324), ATF4 (11815, used at 1:1000), PDGFRβ (3169), IGF1Rβ (9750), EGFR (2232), and HER2 (2242) were from Cell Signaling Technology. Phospho-RSK antibody was from R&D (AF889). Antibodies to total STAT3 (sc-482) and gp130 (sc-656, used at 1:1000) were from Santa Cruz Biotechnology. Phospho-S727 STAT3 antibody was described previously (229). REDD1 antibody was from Proteintech (10638-1-AP, used at 1:1000). Antibody recognizing full-length and cleaved ATF6 was from Abcam (ab122897, used at 1:1000). Antibodies to tubulin (T5168) and beta actin (A5316) were from Sigma. […] Cell viability was measured as ATP-dependent luminescence by Cell Titer Glo (Promega).
MEF, MDA-MB-468, and SKBR3 cells were treated with atovaquone (25 μM) for 6 or 12 hours, then analyzed by Western blot for expression of gp130 and various other receptors. […]

JAK family members = experiment: In vitro kinase assays (Invitrogen SelectScreen); format: biochemical; conditions: atovaquone 15 μM
Protocol: FIG. 15 contains a bar graph quantifying kinase activity (expressed as percent of vehicle) for the indicated kinases (JAK1, JAK2, JAK3, TYK2, SRC) determined using in vitro kinase assays (Invitrogen SelectScreen) and following treatment with atovaquone (AQ) (15 μM) or JAK inhibitor 1 (0.5 μM).
To understand how atovaquone inhibits STAT3 phosphorylation, the possibility that atovaquone decreases the kinase activity of JAKs, which are responsible for STAT3 activation in the systems previously tested was considered. To assess kinase activity, the extent of kinase auto-phosphorylation, which provides a cellular readout of kinase activity, was first analyzed. […] In particular, U266 cells were treated with atovaquone (15 μM) or JAK inhibitor 1(1 μM) for 1 hour, followed by lysis and immunoprecipitation to TYK2. The blot was probed with a pan-phospho-tyrosine antibody (FIG. 14A). Due to technical limitations, tyrosine phosphorylation of other JAK family members was not detected in U266 cells. Next, HEL cells were treated with atovaquone (20 μM) or JAK inhibitor 1 (1 μM) for 6 hours, followed by lysis and immunoprecipitation to JAK2, which was selected because these cells harbor mutant JAK2-V617F. The blot was probed with a pan-phospho-tyrosine antibody, as well as antibodies specific to phospho-Tyr570 and phospho-Tyr1007/1008 (FIG. 14B). […]

O=C1C(O)=C([C@H]2CC[C@H](c3ccc(Cl)cc3)CC2)C(=O)c2ccccc21 [atovaquone, trans-2-[4-(4-chlorophenyl)cyclohexyl]-3-hydroxy-1,4-naphthalenedione]
plasma concentrations achieved in patients ([1]; patients taking standard doses): 40 to 80 µM
plasma concentrations achieved in patients ([1]; patients): 15000 to 30000 ng/mL
STAT5 transcription factor activity (STAT5): modestly affected at the higher doses
levels of other receptors (PDGFR-β, EGFR, HER2, IGF1R-β) [2]: not affected
in vitro kinase activity (JAK family members): no inhibition
